Data published in ChEMBL document CHEMBL1123242, “Derivatives of 1-(1,3-benzodioxol-5-yl)-2-butanamine: representatives of a novel therapeutic class” (1986).

Experiments:
Format in all cases: functional
Rattus norvegicus [1] = assay: Compound was tested for hallucinogenic activity in rats at 2.19 dose(mg/kg); Number of rats selecting the LSD lever/ number of rats responding (2/8)
Rattus norvegicus [2] = assay: Compound was tested for hallucinogenic activity in rats at 2.56 dose(mg/kg); Number of rats selecting the LSD lever/ number of rats responding (2/8)
Rattus norvegicus [3] = assay: Compound was tested for hallucinogenic activity in rats at 2.92 dose(mg/kg); Number of rats selecting the LSD lever/ number of rats responding (3/8)
Rattus norvegicus [4] = assay: Compound was tested for hallucinogenic activity in rats at 3.65 dose(mg/kg); 0/1, highest dose tested
Rattus norvegicus [5] = assay: Compound was tested for hallucinogenic activity in rats at 1.83 dose (mg/kg); Number of rats selecting the LSD lever/ number of rats responding (1/8)
Rattus norvegicus [6] = assay: Compound was tested for hallucinogenic activity in rats at dose 1.46 (mg/kg); Number of rats selecting the LSD lever/ number of rats responding (1/8)
Rattus norvegicus [7] = assay: Compound was tested for hallucinogenic activity in rats at the dose 0.17 mg/kg); Number of rats selecting the LSD lever/ number of rats responding (3/8)
Rattus norvegicus [8] = assay: Compound was tested for hallucinogenic activity in rats at the dose 0.37(mg/kg); Number of rats selecting the LSD lever/ number of rats responding (1/8)
Rattus norvegicus [9] = assay: Compound was tested for hallucinogenic activity in rats at 0.73(mg/kg); Number of rats selecting the LSD lever/ number of rats responding (1/8)
Rattus norvegicus [10] = assay: Compound was tested for hallucinogenic activity in rats at 0.63 dose(mg/kg); Number of rats selecting the LSD lever/ number of rats responding (2/8)
Rattus norvegicus [11] = assay: Compound was tested for hallucinogenic activity in rats at 1.62 dose(mg/kg); Number of rats selecting the LSD lever/ number of rats responding (2/6)
Rattus norvegicus [12] = assay: Compound was tested for hallucinogenic activity in rats at dose 1.29(mg/kg); Number of rats selecting the LSD lever/ number of rats responding (3/8)
Rattus norvegicus [13] = assay: Compound was tested for hallucinogenic activity in rats at the dose 0.16(mg/kg); Number of rats selecting the LSD lever/ number of rats responding (1/8)
Rattus norvegicus [14] = assay: Compound was tested for hallucinogenic activity in rats at the dose 0.32(mg/kg); Number of rats selecting the LSD lever/ number of rats responding (2/8)
Rattus norvegicus [15] = assay: Compound was tested for hallucinogenic activity in rats at 1.73 dose(mg/kg); 0/0, highest dose tested
Rattus norvegicus [16] = assay: Compound was tested for hallucinogenic activity in rats at the dose 0.17 (mg/kg)
Rattus norvegicus [17] = assay: Compound was tested for hallucinogenic activity in rats at the dose 1.38 (mg/kg)
Rattus norvegicus [18] = assay: Compound was tested for hallucinogenic activity in rats at 0.69 dose(mg/kg); Number of rats selecting the LSD lever/ number of rats responding (1/8)
Rattus norvegicus [19] = assay: Compound was tested for hallucinogenic activity in rats at 2.41 dose(mg/kg); Number of rats selecting the LSD lever/ number of rats responding (8/8)
Rattus norvegicus [20] = assay: Compound was tested for hallucinogenic activity in rats at 1.72 dose (mg/kg); Number of rats selecting the LSD lever/ number of rats responding (2/8)
Rattus norvegicus [21] = assay: Compound was tested for hallucinogenic activity in rats at 2.07 dose(mg/kg); Number of rats selecting the LSD lever/ number of rats responding (3/8)
Rattus norvegicus [22] = assay: Compound was tested for hallucinogenic activity in rats at dose 1.38 (mg/kg); Number of rats selecting the LSD lever/ number of rats responding (3/8)
Rattus norvegicus [23] = assay: Compound was tested for hallucinogenic activity in rats at the dose 0.17(mg/kg); Number of rats selecting the LSD lever/ number of rats responding (1/8)
Rattus norvegicus [24] = assay: Compound was tested for hallucinogenic activity in rats at the dose 0.34(mg/kg); Number of rats selecting the LSD lever/ number of rats responding (1/8)
Rattus norvegicus [25] = assay: Compound was tested for hallucinogenic activity in rats at the dose 0.16 (mg/kg)
Rattus norvegicus [26] = assay: Compound was tested for hallucinogenic activity in rats at 0.16 dose(mg/kg); Number of rats selecting the LSDlever/ number of rats responding (1/8)
Rattus norvegicus [27] = assay: Compound was tested for hallucinogenic activity in rats at 0.32 dose(mg/kg); Number of rats selecting the LSDlever/ number of rats responding (2/8)
Rattus norvegicus [28] = assay: Compound was tested for hallucinogenic activity in rats at the 0.63 dose(mg/kg); Number of rats selecting the LSDlever/ number of rats responding (2/8)
Rattus norvegicus [29] = assay: Compound was tested for hallucinogenic activity in rats at the 1.29 dose(mg/kg); Number of rats selecting the LSDlever/ number of rats responding (7/8)
Rattus norvegicus [30] = assay: Compound was tested for hallucinogenic activity in rats at 0.69 dose(mg/kg); Number of rats selecting the LSD lever/ number of rats responding (4/8)
Rattus norvegicus [31] = assay: Compound was tested for hallucinogenic activity in rats at 1.82 dose (mg/kg); 0/0, highest dose tested
Rattus norvegicus [32] = assay: Compound was tested for hallucinogenic activity in rats at dose 1.38(mg/kg); Number of rats selecting the LSD lever/ number of rats responding (4/8)
Rattus norvegicus [33] = assay: Compound was tested for hallucinogenic activity in rats at dose 1.72 (mg/kg); Number of rats selecting the LSD lever/ number of rats responding (4/8)
Rattus norvegicus [34] = assay: Compound was tested for hallucinogenic activity in rats at the dose 0.17(mg/kg); Number of rats selecting the LSD lever/ number of rats responding […])
Rattus norvegicus [35] = assay: Compound was tested for hallucinogenic activity in rats at the dose 0.34(mg/kg); Number of rats selecting the LSD lever/ number of rats responding (2/8)
Rattus norvegicus [36] = assay: Compound was tested for hallucinogenic activity in rats at 0.69 dose(mg/kg); Number of rats selecting the LSD lever/ number of rats responding (0/8)
Rattus norvegicus [37] = assay: Compound was tested for hallucinogenic activity in rats at 2.41 dose(mg/kg); Number of rats selecting the LSD lever/ number of rats responding (3/8)
Rattus norvegicus [38] = assay: Compound was tested for hallucinogenic activity in rats at 2.76 dose(mg/kg); Number of rats selecting the LSD lever/ number of rats responding (4/8)
Rattus norvegicus [39] = assay: Compound was tested for hallucinogenic activity in rats at 3.45 dose (mg/kg); Number of rats selecting the LSD lever/ number of rats responding (3/8)
Rattus norvegicus [40] = assay: Compound was tested for hallucinogenic activity in rats at 4.14 dose (mg/kg); Number of rats selecting the LSD lever/ number of rats responding (2/8)
Rattus norvegicus [41] = assay: Compound was tested for hallucinogenic activity in rats at 1.72 dose (mg/kg); Number of rats selecting the LSD lever/ number of rats responding (2/9)
Rattus norvegicus [42] = assay: Compound was tested for hallucinogenic activity in rats at 2.07 dose(mg/kg); Number of rats selecting the LSD lever/ number of rats responding (3/10)
Rattus norvegicus [43] = assay: Compound was tested for hallucinogenic activity in rats at dose 1.38 (mg/kg); 1/8
Rattus norvegicus [44] = assay: Compound was tested for hallucinogenic activity in rats at the dose 0.17(mg/kg); Number of rats selecting the LSD lever/ number of rats responding (2/8)
Rattus norvegicus [45] = assay: Compound was tested for hallucinogenic activity in rats at 5.52 dose(mg/kg); 1/2, highest dose tested

CC[C@H](Cc1ccc2c(c1)OCO2)NC
Result (Rattus norvegicus [1]): 2 | Result (Rattus norvegicus [2]): 2 | Result (Rattus norvegicus [3]): 3 | Result (Rattus norvegicus [4]): 0 | Result (Rattus norvegicus [5]): 1 | Result (Rattus norvegicus [6]): 1 | Result (Rattus norvegicus [7]): 3 | Result (Rattus norvegicus [8]): 1 | Result (Rattus norvegicus [9]): 1

C[C@H](N)Cc1ccc2c(c1)OCO2
Result (Rattus norvegicus [10]): 2 | Result (Rattus norvegicus [11]): 2 | Result (Rattus norvegicus [12]): 3 | Result (Rattus norvegicus [13]): 1 | Result (Rattus norvegicus [14]): 2 | Result (Rattus norvegicus [15]): 0

CC[C@H](N)Cc1ccc2c(c1)OCO2
ED50 (Rattus norvegicus [16]): 6 µmol/kg | ED50 (Rattus norvegicus [17]): 1.38 mg/kg | Result (Rattus norvegicus [18]): 1 | Result (Rattus norvegicus [19]): 8 | Result (Rattus norvegicus [20]): 2 | Result (Rattus norvegicus [21]): 3 | Result (Rattus norvegicus [22]): 3 | Result (Rattus norvegicus [23]): 1 | Result (Rattus norvegicus [24]): 1

C[C@@H](N)Cc1ccc2c(c1)OCO2
ED50 (Rattus norvegicus [25]): 2.94 µmol/kg | Result (Rattus norvegicus [26]): 1 | Result (Rattus norvegicus [27]): 2 | Result (Rattus norvegicus [28]): 2 | Result (Rattus norvegicus [29]): 7

CN[C@@H](C)Cc1ccc2c(c1)OCO2
Result (Rattus norvegicus [30]): 4 | Result (Rattus norvegicus [31]): 0 | Result (Rattus norvegicus [32]): 4 | Result (Rattus norvegicus [33]): 4 | Result (Rattus norvegicus [34]): 2 | Result (Rattus norvegicus [35]): 2

CC[C@@H](N)Cc1ccc2c(c1)OCO2
Result (Rattus norvegicus [36]): 0 | Result (Rattus norvegicus [37]): 3 | Result (Rattus norvegicus [38]): 4 | Result (Rattus norvegicus [39]): 3 | Result (Rattus norvegicus [40]): 2 | Result (Rattus norvegicus [41]): 2 | Result (Rattus norvegicus [42]): 3 | Result (Rattus norvegicus [43]): 1 | Result (Rattus norvegicus [44]): 2 | Result (Rattus norvegicus [35]): 2 | Result (Rattus norvegicus [45]): 1
